The results in this text go back to patent US7871998B2, “Diphenylazetidinone derivatives possessing cholesterol absorption inhibitory activity” (AstraZeneca AB, priority 2003, dated 2011).

Data set [1] is described as follows: Absorption in a Caco-2 cells model. To be noted: human. The format is in vitro ADME. On the procedure:
(§1) Absorption of the compounds of formula (I) was tested in a Caco-2 cells model (Gastroenterology 1989, 96, 736): […]

The next data set has as its system Caco-2 cells. Description: Absorption in a Caco-2 cells model. The format is in vitro ADME. On the procedure:
as §1

Data set [2] has as its system ^14C-cholesterol absorption. Description: In vivo testing of cholesterol absorption inhibitors (A). More on the design: species or system C57BL/6 female mice. The settings on record: procedure A, gavage, mice. How it is done:
In vivo Testing of Cholesterol Absorption Inhibitors (A)
C57BL/6 female mice were maintained on regular chow diet and housed in individual cages to collect faeces. Mice were fasted for 3 hours and then gavaged with vehicle or compound. Half an hour later the mice were gavaged with radiolabelled cholesterol. Six hours after the ^14C-cholesterol gavage blood samples were taken via the tail and plasma prepared to determine how much cholesterol were absorbed. 24 hours after the gavage of ^14C-cholesterol the mice were bled and plasma were prepared for analysis. Faeces were collected for 24 hours to assess absorption efficiency.

What is called Papp is the rate of passage across a membrane or cell layer, normalised by area and donor concentration.

Consider `CC(C)[C@@H](NC(=O)CNC(=O)COc1ccc([C@@H]2[C@@H](SCC(O)c3ccc(F)cc3)C(=O)N2c2ccc(F)cc2)cc1)C(=O)O` (stereo partly drawn) [Example 23, N-{[4-((2R,3R)-1-(4-fluorophenyl)-3-{[2-(4-fluorophenyl)-2-hydroxyethyl]thio}-4-oxoazetidin-2-yl)phenoxy]acetyl}glycyl-D-valine], for which, in data set [1], the Papp turned out to be 0.06 ×10⁻⁶ cm/s. `O=C(COc1ccc([C@@H]2[C@@H](SCC(O)c3ccc(F)cc3)C(=O)N2c2ccc(F)cc2)cc1)NCC(=O)N[C@H](Cc1ccc(O)cc1)C(=O)O` (stereo partly drawn) [Example 26, N-{[4-((2R,3R)-1-(4-fluorophenyl)-3-{[2-(4-fluorophenyl)-2-hydroxyethyl]thio}-4-oxoazetidin-2-yl)phenoxy]acetyl}glycyl-D-tyrosine] gave an apparent permeability coefficient (Papp) in data set [1] of 0.07 ×10⁻⁶ cm/s. In turn, `NCCCC[C@@H](NC(=O)CNC(=O)COc1ccc([C@@H]2[C@@H](SCC(O)c3ccc(F)cc3)C(=O)N2c2ccc(F)cc2)cc1)C(=O)O` (some centres unmarked) [Example 29] had a Caco value in the data set with Caco-2 cells of 0.2 ×10⁻⁶ cm/s. For the compound `O=C(COc1ccc([C@@H]2[C@@H](SCC(O)c3ccc(F)cc3)C(=O)N2c2ccc(F)cc2)cc1)NCC(=O)N[C@H](CC1CCCC1)C(=O)O` (stereo partly drawn) [Example 85, N-{[4-((2R,3R)-1-(4-fluorophenyl)-3-{[2-(4-fluorophenyl)-2-hydroxyethyl]thio}-4-oxoazetidin-2-yl)phenoxy]acetyl}glycyl-3-cyclopentyl-D-alanine], in data set [2] (0.2 μmol/kg), the “inhibition of ^14C-cholesterol absorption” value worked out at 47%. On the same count and under the same terms, with `NCCC[C@@H](NC(=O)CNC(=O)COc1ccc([C@@H]2[C@@H](SCC(O)c3ccc(F)cc3)C(=O)N2c2ccc(F)cc2)cc1)C(=O)O` (stereo partly drawn) [Example 91, N-{[4-((2R,3R)-1-(4-fluorophenyl)-3-{[2-(4-fluorophenyl)-2-hydroxyethyl]thio}-4-oxoazetidin-2-yl)phenoxy]acetyl}glycyl-D-ornithine] the figure was 58%. As for `O=C(COc1ccc([C@@H]2[C@@H](SCC(O)c3ccc(F)cc3)C(=O)N2c2ccc(F)cc2)cc1)N[C@@H](C(=O)N[C@@H](CO)C(=O)O)c1ccccc1` (stereo partly drawn) [Example 94, 1-(4-Fluorophenyl)-3-(R)-[2-(4-fluorophenyl)-2-hydroxyethylthio]-4-(R)-{4-[N-(α-(R)-{N-[2-(hydroxy)-1-(S)-(carboxy)ethyl]carbamoyl}benzyl)carbamoylmethoxy]phenyl}azetidin-2-one], the “inhibition of ^14C-cholesterol absorption” value in data set [2] (5 μmol/kg) turned out to be 89%. The same measure, in the same setting: as for `O=C(COc1ccc([C@@H]2[C@@H](SCC(O)c3ccc(F)cc3)C(=O)N2c2ccc(F)cc2)cc1)NCC(=O)N[C@H](CO)C(=O)O` (stereo partly drawn) [Example 96, 1-(4-Fluorophenyl)-3-(R)-[2-(4-fluorophenyl)-2-hydroxyethylthio]-4-(R)-{4-[N-{N-[2-(hydroxy)-1-(R)-(carboxy)ethyl]carbamoylmethyl}carbamoylmethoxy]phenyl}azetidin-2-one], the figure is 87%. On to `O=C(COc1ccc([C@@H]2[C@@H](SCC(O)c3ccc(F)cc3)C(=O)N2c2ccc(F)cc2)cc1)NCC(=O)N[C@H](Cc1ccccc1)C(=O)O` (stereo partly drawn) [Example 97, 1-(4-Fluorophenyl)-3-(R)-[2-(4-fluorophenyl)-2-hydroxyethylthio]-4-(R)-{4-[N-{N-[2-(phenyl)-1-(R)-(carboxy)ethyl]carbamoylmethyl}carbamoylmethoxy]phenyl}azetidin-2-one], for which the Caco value with Caco-2 cells was 0.09 ×10⁻⁶ cm/s.
